ChEMBL document CHEMBL1201862, “PubChem BioAssay data set” (2004)
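Assay format: 96-well plates, 48-hour exposure. GI50: concentration for 50% inhibition of growth.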 Calls of active or inactive are those of the source. No stated cut-off is given here; in the data, active = GI50 up to about 1.1 µM and inactive = higher.

Legend:
Experiment in all cases: NCI tumour cell line growth inhibition, 48 h
[1] = test system: OVCAR-3
[2] = test system: SK-MEL-5
[3] = test system: TK-10
[4] = test system: OVCAR-8
[5] = test system: Malme-3M
[6] = test system: UO-31
[7] = test system: HOP-62
[8] = test system: OVCAR-5
[9] = test system: SF-268
[10] = test system: HCC 2998
[11] = test system: KM-20L2
[12] = test system: A549
[13] = test system: CCRF-CEM
[14] = test system: SK-OV-3
[15] = test system: RXF 393
[16] = test system: A498
[17] = test system: LXFL 529
[18] = test system: SF-539
[19] = test system: SK-MEL-2
[20] = test system: EKVX
[21] = test system: K562
[22] = test system: HCT-116
[23] = test system: SNB-19
[24] = test system: SNB-78
[25] = test system: M19-MEL
[26] = test system: HOP-18
[27] = test system: SW-620
[28] = test system: NCI-H460
[29] = test system: SNB-75
[30] = test system: DLD-1
[31] = test system: SK-MEL-28
[32] = test system: ACHN
[33] = test system: NCI-H522
[34] = test system: RXF 631
[35] = test system: IGROV-1
[36] = test system: DMS-273
[37] = test system: COLO 205
[38] = test system: UACC-257
[39] = test system: NCI-H23
[40] = test system: HT-29
[41] = test system: RPMI-8226
[42] = test system: SF-295
[43] = test system: U-251
[44] = test system: MOLT-4
[45] = test system: KM12
[46] = test system: LOX IMVI
[47] = test system: DMS-114
[48] = test system: HOP-92
[49] = test system: 786-0
[50] = test system: XF498
[51] = test system: HL-60
[52] = test system: PC-3
[53] = test system: SR
[54] = test system: CAKI-1
[55] = test system: M14
[56] = test system: NCI-H226
[57] = test system: MDA-MB-231
[58] = test system: NCI/ADR-RES
[59] = test system: OVCAR-4
[60] = test system: MDA-N
[61] = test system: UACC-62
[62] = test system: SN12C
[63] = test system: HCT-15
[64] = test system: MDA-MB-435
[65] = test system: BT-549
[66] = test system: DU-145

BrC12C3C4C5C(C(C43)C13OCCO3)C52 (stereo unspecified)
GI50 [1]: > 100 µM (inactive)
GI50 [2]: > 100 µM (inactive)
GI50 [3]: > 100 µM (inactive)
GI50 [4]: > 100 µM (inactive)
GI50 [5]: > 100 µM (inactive)
GI50 [6]: > 100 µM (inactive)
GI50 [7]: > 100 µM (inactive)
GI50 [8]: > 100 µM (inactive)
GI50 [9]: > 100 µM (inactive)
GI50 [10]: > 100 µM (inactive)
GI50 [11]: > 100 µM (inactive)
GI50 [12]: > 100 µM (inactive)
GI50 [13]: > 100 µM (inactive)
GI50 [14]: > 100 µM (inactive)
GI50 [15]: > 100 µM (inactive)
GI50 [16]: > 100 µM (inactive)
GI50 [17]: > 100 µM (inactive)
GI50 [18]: > 100 µM (inactive)
GI50 [19]: > 100 µM (inactive)
GI50 [20]: > 100 µM (inactive)
GI50 [21]: > 100 µM (inactive)
GI50 [22]: > 100 µM (inactive)
GI50 [23]: > 100 µM (inactive)
GI50 [24]: > 100 µM (inactive)
GI50 [25]: > 100 µM (inactive)
GI50 [26]: 8.55 µM (inactive)
GI50 [27]: > 100 µM (inactive)
GI50 [28]: > 100 µM (inactive)
GI50 [29]: > 100 µM (inactive)
GI50 [30]: > 100 µM (inactive)
GI50 [31]: > 100 µM (inactive)
GI50 [32]: > 100 µM (inactive)
GI50 [33]: > 100 µM (inactive)
GI50 [34]: > 100 µM (inactive)
GI50 [35]: > 100 µM (inactive)
GI50 [36]: > 100 µM (inactive)
GI50 [37]: > 100 µM (inactive)
GI50 [38]: > 100 µM (inactive)
GI50 [39]: > 100 µM (inactive)
GI50 [40]: > 100 µM (inactive)
GI50 [41]: > 100 µM (inactive)
GI50 [42]: > 100 µM (inactive)
GI50 [43]: > 100 µM (inactive)
GI50 [44]: > 100 µM (inactive)
GI50 [45]: > 100 µM (inactive)
GI50 [46]: > 100 µM (inactive)
GI50 [47]: > 100 µM (inactive)
GI50 [48]: 58.1 µM (inactive)
GI50 [49]: > 100 µM (inactive)
GI50 [50]: 60.4 µM (inactive)
GI50 [51]: > 100 µM (inactive)

O=Cc1ccc(-c2ccc(-c3ccc(C=O)s3)o2)s1
GI50 [1]: 1.44 µM (inactive)
GI50 [2]: > 87.7 µM (inactive)
GI50 [3]: 1.46 µM (inactive)
GI50 [4]: > 100 µM (inactive)
GI50 [5]: > 100 µM (inactive)
GI50 [52]: > 100 µM (inactive)
GI50 [6]: 68.5 µM (inactive)
GI50 [7]: 8.63 µM (inactive)
GI50 [8]: 2.14 µM (inactive)
GI50 [53]: > 40.8 µM (inactive)
GI50 [9]: > 100 µM (inactive)
GI50 [54]: 0.418 µM (active)
GI50 [10]: 18 µM (inactive)
GI50 [11]: 31.3 µM (inactive)
GI50 [12]: > 81.7 µM (inactive)
GI50 [13]: > 43.6 µM (inactive)
GI50 [14]: > 97.3 µM (inactive)
GI50 [55]: > 100 µM (inactive)
GI50 [56]: 0.656 µM (active)
GI50 [15]: 0.233 µM (active)
GI50 [16]: 0.284 µM (active)
GI50 [57]: > 100 µM (inactive)
GI50 [58]: 61.5 µM (inactive)
GI50 [17]: 0.186 µM (active)
GI50 [18]: > 82.4 µM (inactive)
GI50 [19]: > 90.6 µM (inactive)
GI50 [20]: > 53.3 µM (inactive)
GI50 [21]: 28.2 µM (inactive)
GI50 [22]: 8.53 µM (inactive)
GI50 [59]: 2.79 µM (inactive)
GI50 [23]: > 88.1 µM (inactive)
GI50 [24]: > 72.8 µM (inactive)
GI50 [25]: > 100 µM (inactive)
GI50 [26]: > 100 µM (inactive)
GI50 [27]: > 80.7 µM (inactive)
GI50 [60]: 60.3 µM (inactive)
GI50 [28]: 1.91 µM (inactive)
GI50 [29]: 29.7 µM (inactive)
GI50 [30]: 74.5 µM (inactive)
GI50 [31]: 98.4 µM (inactive)
GI50 [32]: > 100 µM (inactive)
GI50 [33]: 15 µM (inactive)
GI50 [34]: 0.541 µM (active)
GI50 [35]: 3.27 µM (inactive)
GI50 [61]: 0.108 µM (active)
GI50 [36]: 26.2 µM (inactive)
GI50 [37]: 18.7 µM (inactive)
GI50 [38]: 2.61 µM (inactive)
GI50 [39]: > 100 µM (inactive)
GI50 [62]: 97.9 µM (inactive)
GI50 [40]: > 96.2 µM (inactive)
GI50 [41]: > 100 µM (inactive)
GI50 [42]: > 77.3 µM (inactive)
GI50 [43]: 1.34 µM (inactive)
GI50 [63]: 61.5 µM
GI50 [44]: > 75.7 µM (inactive)
GI50 [45]: > 100 µM (inactive)
GI50 [46]: > 100 µM (inactive)
GI50 [47]: > 84.1 µM (inactive)
GI50 [48]: > 89.3 µM (inactive)
GI50 [49]: 23.8 µM (inactive)
GI50 [64]: 71.4 µM (inactive)
GI50 [65]: 77.3 µM (inactive)
GI50 [66]: > 100 µM (inactive)
GI50 [51]: > 100 µM (inactive)
